Consider five molecules from patent EP0908457B1, “3-(1,2-benzisothiazol- and isoxazol-5-Y1)-2,4(1H,3H)-pyrimidinedione or thione and 3-(1,2-benzisothiazol- and isoxazol-5-y1)-4(3H)-pyrimidinone or thione herbicidal agents” (BASF AKTIENGESELLSCHAFT, priority 1997, dated 1999).

Data set [1] relates to Oryza sativa, (L.) Tebonnet. As to the kind of experiment: Rice tolerance to post-transplant applications under flooded paddy conditions (Example 187), ORYSAT (Rice, Tebonnet). Conditions: rated three to four weeks after treatment.
The subject of data set [2] is Cyperus iria. As to the kind of experiment: Preemergence weed control under flooded paddy conditions, CYPIR (Rice Flatsedge). Conditions: preemergence, flooded paddy, rated three to four weeks after treatment. It is filed as in vivo.
The subject of data set [3] is Sagittaria pygmaea, L. As to the kind of experiment: Preemergence weed control under flooded paddy conditions, SAGPY (Arrowhead (Pygmaea)). It is filed as in vivo. Conditions: preemergence, flooded paddy, rated three to four weeks after treatment.
Data set [4] relates to Echinochloa oryzoides (Ard.) Fritsch. As to the kind of experiment: Preemergence weed control under flooded paddy conditions, ECHORC (Watergrass (Calif.)). Type of data set: in vivo. Conditions: preemergence, flooded paddy, rated three to four weeks after treatment.
The test system of data set [5] is Monochoria vaginalis, Presl. As to the kind of experiment: Preemergence weed control under flooded paddy conditions, MOOVA (Monochoria). The following applies: preemergence, flooded paddy, rated three to four weeks after treatment. Type of data set: in vivo.
In data set [6] the test system is Cyperus serotinus, Rottb. As to the kind of experiment: Preemergence weed control under flooded paddy conditions, CYPSE (Flatsedge). Type of data set: in vivo. The following applies: preemergence, rated three to four weeks after treatment.
Also: meaning of each grade not given here.

`Cn1c(C(F)(F)F)cc(=O)n(-c2ccc3snc(C(=O)NS(=O)(=O)c4ccccc4)c3c2)c1=O` [Example 352, 1,2-Benzisothiazole-3-carboxamide, 5-[3,6-dihydro-3-methyl-2,6-dioxo-4-(trifluoromethyl)-1(2H)-pyrimidinyl]-N-(phenylsulfonyl)-]: the “herbicidal effect rating ORYSAT” value is listed as 0.5 in data set [1] (Rate 0.0320 kg/ha), 1.0 in data set [1] (Rate 0.0620 kg/ha), 2.5 in data set [1] (Rate 0.1250 kg/ha) and 3.0 in data set [1] (Rate 0.2500 kg/ha). The “herbicidal effect rating, CYPIR” value in data set [2] (Rate 0.0320 kg/ha) was 2.0; in data set [2] (Rate 0.0620 kg/ha), 6.5; in data set [2] (Rate 0.1250 kg/ha) it was 7.5; in data set [2] (Rate 0.2500 kg/ha), 9.0. The “herbicidal effect rating, SAGPY” value in data set [3] (Rate 0.0320 kg/ha) was 2.5; in data set [3] (Rate 0.0620 kg/ha) it was 5.0; in data set [3] (Rate 0.1250 kg/ha), 9.0; in data set [3] (Rate 0.2500 kg/ha), 9.0. In addition, the “herbicidal effect rating, ECHORC” value in data set [4] (Rate 0.0320 kg/ha) is reported as 2.5; in data set [4] (Rate 0.0620 kg/ha), 4.0; in data set [4] (Rate 0.1250 kg/ha) it was 6.5; in data set [4] (Rate 0.2500 kg/ha), 9.0. The “herbicidal effect rating, MOOVA” value in data set [5] (Rate 0.0320 kg/ha) is listed as 6.0; in data set [5] (Rate 0.0620 kg/ha) it was 9.0; in data set [5] (Rate 0.1250 kg/ha) it was 9.0; in data set [5] (Rate 0.2500 kg/ha), 9.0. In addition, the “herbicidal effect rating, CYPSE” value is listed as 0.0 in data set [6] (Rate 0.0320 kg/ha), 0.0 in data set [6] (Rate 0.0620 kg/ha), 1.0 in data set [6] (Rate 0.1250 kg/ha) and 0.0 in data set [6] (Rate 0.2500 kg/ha).

`Cc1ccc(S(=O)(=O)NC(=O)c2nsc3ccc(-n4c(=O)cc(C(F)(F)F)n(C)c4=O)cc23)cc1` [Example 353, 1,2-Benzisothiazole-3-carboxamide, 5-[3,6-dihydro-3-methyl-2,6-dioxo-4-(trifluoromethyl)-1(2H)-pyrimidinyl]-N-(p-tolylsulfonyl)-]: the “herbicidal effect rating ORYSAT” value turned out to be 2.5 in data set [1] (Rate 0.0320 kg/ha), 3.0 in data set [1] (Rate 0.0620 kg/ha), 3.5 in data set [1] (Rate 0.1250 kg/ha) and 4.0 in data set [1] (Rate 0.2500 kg/ha). Besides, the “herbicidal effect rating, CYPIR” value in data set [2] (Rate 0.0320 kg/ha) is on record as 0.0; in data set [2] (Rate 0.0620 kg/ha), 0.0; in data set [2] (Rate 0.1250 kg/ha), 1.0; in data set [2] (Rate 0.2500 kg/ha) it was 3.0. The “herbicidal effect rating, SAGPY” value in data set [3] (Rate 0.0320 kg/ha), in data set [3] (Rate 0.0620 kg/ha), in data set [3] (Rate 0.1250 kg/ha) and in data set [3] (Rate 0.2500 kg/ha) was 0.0 in each case. The “herbicidal effect rating, ECHORC” value was 0.0 in data set [4] (Rate 0.0320 kg/ha), 2.0 in data set [4] (Rate 0.0620 kg/ha), 2.5 in data set [4] (Rate 0.1250 kg/ha) and 3.0 in data set [4] (Rate 0.2500 kg/ha). The “herbicidal effect rating, MOOVA” value amounted to 3.5 in data set [5] (Rate 0.0320 kg/ha), 6.5 in data set [5] (Rate 0.0620 kg/ha), 8.0 in data set [5] (Rate 0.1250 kg/ha) and 8.0 in data set [5] (Rate 0.2500 kg/ha). The “herbicidal effect rating, CYPSE” value in data set [6] (Rate 0.0320 kg/ha) is 0.0; in data set [6] (Rate 0.0620 kg/ha), 0.0; in data set [6] (Rate 0.1250 kg/ha), 1.5; in data set [6] (Rate 0.2500 kg/ha) it was 2.5.

For `Cc1ccc(OCC(=O)N(C)O)c(-c2nsc3ccc(-n4c(=O)cc(C(F)(F)F)n(C)c4=O)cc23)c1` [Example 355, Acetohydroxamic acid, 2-{{2-{5-[3,6-dihydro-3-methyl-2,6-dioxo-4-(trifluoromethyl)-1(2H)pyrimidinyl]-1,2-benzisothiazol-3-yl}-p-tolyl}oxy}-N-methyl-], the “herbicidal effect rating ORYSAT” value in data set [1] (Rate 0.0320 kg/ha) worked out at 2.5; in data set [1] (Rate 0.0620 kg/ha), 3.0; in data set [1] (Rate 0.1250 kg/ha), 5.5; in data set [1] (Rate 0.2500 kg/ha), 5.0. Further, the “herbicidal effect rating, CYPIR” value in data set [2] (Rate 0.0320 kg/ha) was determined as 4.5; in data set [2] (Rate 0.0620 kg/ha) it was 4.5; in data set [2] (Rate 0.1250 kg/ha), 6.5; in data set [2] (Rate 0.2500 kg/ha), 5.0. The “herbicidal effect rating, SAGPY” value is listed as 2.0 in data set [3] (Rate 0.0320 kg/ha), 4.5 in data set [3] (Rate 0.0620 kg/ha), 4.5 in data set [3] (Rate 0.1250 kg/ha) and 9.0 in data set [3] (Rate 0.2500 kg/ha). The “herbicidal effect rating, ECHORC” value in data set [4] (Rate 0.0320 kg/ha) is given as 7.0; in data set [4] (Rate 0.0620 kg/ha) it was 9.0; in data set [4] (Rate 0.1250 kg/ha) it was 9.0; in data set [4] (Rate 0.2500 kg/ha), 9.0. Moreover, the “herbicidal effect rating, MOOVA” value in data set [5] (Rate 0.0320 kg/ha), in data set [5] (Rate 0.0620 kg/ha), in data set [5] (Rate 0.1250 kg/ha) and in data set [5] (Rate 0.2500 kg/ha) was 9.0 in each case. Besides, the “herbicidal effect rating, CYPSE” value in data set [6] (Rate 0.0320 kg/ha) is given as 0.0; in data set [6] (Rate 0.0620 kg/ha), 1.0; in data set [6] (Rate 0.1250 kg/ha), 3.5; in data set [6] (Rate 0.2500 kg/ha) it was 5.0.

Regarding `Cn1c(C(F)(F)F)cc(=O)n(-c2ccc3snc(C(=O)NS(=O)(=O)c4ccc(Cl)cc4)c3c2)c1=O` [Example 356, 1,2-Benzisothiazole-3-carboxamide, N-[(p-chlorophenyl)sulfonyl]-5-[3,6-dihydro-3-methyl-2,6-dioxo-4-(trifluoromethyl)-1(2H)-pyrimidinyl]-], the “herbicidal effect rating ORYSAT” value is 0.5 in data set [1] (Rate 0.0320 kg/ha), 2.5 in data set [1] (Rate 0.0620 kg/ha), 4.5 in data set [1] (Rate 0.1250 kg/ha) and 2.0 in data set [1] (Rate 0.2500 kg/ha). Also, the “herbicidal effect rating, CYPIR” value amounted to 6.5 in data set [2] (Rate 0.0320 kg/ha), 9.0 in data set [2] (Rate 0.0620 kg/ha), 9.0 in data set [2] (Rate 0.1250 kg/ha) and 9.0 in data set [2] (Rate 0.2500 kg/ha). Moreover, the “herbicidal effect rating, SAGPY” value is recorded as 4.5 in data set [3] (Rate 0.0320 kg/ha), 4.5 in data set [3] (Rate 0.0620 kg/ha), 5.5 in data set [3] (Rate 0.1250 kg/ha) and 8.0 in data set [3] (Rate 0.2500 kg/ha). In addition, the “herbicidal effect rating, ECHORC” value in data set [4] (Rate 0.0320 kg/ha) amounted to 3.5; in data set [4] (Rate 0.0620 kg/ha), 5.0; in data set [4] (Rate 0.1250 kg/ha), 6.5; in data set [4] (Rate 0.2500 kg/ha) it was 9.0. The “herbicidal effect rating, MOOVA” value in data set [5] (Rate 0.0320 kg/ha) amounted to 7.5; in data set [5] (Rate 0.0620 kg/ha) it was 9.0; in data set [5] (Rate 0.1250 kg/ha) it was 9.0; in data set [5] (Rate 0.2500 kg/ha), 9.0. Further, the “herbicidal effect rating, CYPSE” value in data set [6] (Rate 0.0320 kg/ha) is reported as 0.0; in data set [6] (Rate 0.0620 kg/ha), 0.0; in data set [6] (Rate 0.1250 kg/ha), 5.0; in data set [6] (Rate 0.2500 kg/ha) it was 6.5.

Turning to `Cn1c(C(F)(F)F)cc(=O)n(-c2ccc3snc(C(=O)NS(=O)(=O)c4ccc5ccccc5c4)c3c2)c1=O` [Example 357, 1,2-Benzisothiazole-3-carboxamide, 5-[3,6-dihydro-3-methyl-2,6-dioxo-4-(trifluoromethyl)-1(2H)-pyrimidinyl]-N-(2-naphthylsulfonyl)-], the “herbicidal effect rating ORYSAT” value in data set [1] (Rate 0.0320 kg/ha) worked out at 2.0; in data set [1] (Rate 0.0620 kg/ha), 2.0; in data set [1] (Rate 0.1250 kg/ha), 2.0; in data set [1] (Rate 0.2500 kg/ha) it was 3.0. In addition, the “herbicidal effect rating, CYPIR” value in data set [2] (Rate 0.0320 kg/ha) came to 0.0; in data set [2] (Rate 0.0620 kg/ha), 0.0; in data set [2] (Rate 0.1250 kg/ha), 2.0; in data set [2] (Rate 0.2500 kg/ha), 6.0. Also, the “herbicidal effect rating, SAGPY” value is 0.0 in data set [3] (Rate 0.0320 kg/ha), 0.0 in data set [3] (Rate 0.0620 kg/ha), 0.0 in data set [3] (Rate 0.1250 kg/ha) and 4.0 in data set [3] (Rate 0.2500 kg/ha). Also, the “herbicidal effect rating, ECHORC” value in data set [4] (Rate 0.0320 kg/ha) is recorded as 4.0; in data set [4] (Rate 0.0620 kg/ha), 5.0; in data set [4] (Rate 0.1250 kg/ha), 5.0; in data set [4] (Rate 0.2500 kg/ha), 7.0. Besides, the “herbicidal effect rating, MOOVA” value in data set [5] (Rate 0.0320 kg/ha), in data set [5] (Rate 0.0620 kg/ha), in data set [5] (Rate 0.1250 kg/ha) and in data set [5] (Rate 0.2500 kg/ha) was 9.0 in each case. The “herbicidal effect rating, CYPSE” value in data set [6] (Rate 0.0320 kg/ha), in data set [6] (Rate 0.0620 kg/ha), in data set [6] (Rate 0.1250 kg/ha) and in data set [6] (Rate 0.2500 kg/ha) was 0.0 in each case.
